Laboratory results: patent US9145542B2, “Method for producing aldehyde from CO2” (The Regents of the University of California, priority 2008, dated 2015)

System: S. elongatus
Experiment: tolerance of S. elongatus to isobutyraldehyde and isobutanol (growth by OD730)
Format: cell-based, Synechococcus elongatus PCC7942
Method: FIGS. 1P-1Q show S. elongatus tolerance to isobutyraldehyde and isobutanol. Effect of isobutyraldehyde (P) or isobutanol (Q) addition on growing cultures of S. elongatus as determined by optical density (OD730). At OD730 ˜1.0, isobutyraldehyde or isobutanol was added to the cultures at final concentration (mg/L) of: 0 (squares), 500 (circles), 750 (triangles), 1000 (diamonds) and 2500 (stars).
The tolerance of S. elongatus to isobutyraldehyde and isobutanol was also measured (FIG. 1P). […] In addition, the isobutyraldehyde tolerance level of S. elongatus is much higher than the concentration found in the culture medium during production. […] Thus, the in situ product removal system effectively avoids toxicity effects.
Wild-type S. elongatus and mutant strains were grown in a modified BG-11 medium with the following modifications: 50 mM NaHCO3 and 10 mg/l thiamine were added. For an experiment with 5% CO2 bubbling, 50 mM NaHCO3 was not added. Cyanobacterial cells were grown at 30° C. under fluorescent light (55 μE s^−1 m^−2), which was provided by eight 86-cm 20-W fluorescent tubes placed 15 cm from the cell culture. Cell growth was monitored by measuring OD730 of each culture.

SMILES	relative toxicity to the cell (S. elongatus, isobutyraldehyde compared with isobutanol)	tolerated concentration (wild-type S. elongatus, compound added to growing cultures at OD730 ~1.0, growth by OD730)	effect on growth (wild-type S. elongatus, the same concentration (750 mg/l) added to growing cultures, growth by OD730)
CC(C)C=O [isobutyraldehyde]	less toxic to the cell than isobutanol	up to 750 mg/l	–
CC(C)CO [isobutanol]	–	–	growth retardation
